According to US6936585B2, “Corticotropin releasing factor 2 receptor agonists” (priority 2002, dated 2005):
Like-named read-outs stand apart in the source and are kept apart here. Ends that are not written are not given here. Peptide text beside a SMILES is read from it.

Tests used:
CRF2R = target: T1, CRF2R (Homo sapiens, UniProt Q13324); assay: CRF2R agonist activation (EC50 / Emax), called comparative CRF binding; assay type: cell-based; details: for Emax: read-out: CRF2R Emax
T1 sequence (Q13324 1-411): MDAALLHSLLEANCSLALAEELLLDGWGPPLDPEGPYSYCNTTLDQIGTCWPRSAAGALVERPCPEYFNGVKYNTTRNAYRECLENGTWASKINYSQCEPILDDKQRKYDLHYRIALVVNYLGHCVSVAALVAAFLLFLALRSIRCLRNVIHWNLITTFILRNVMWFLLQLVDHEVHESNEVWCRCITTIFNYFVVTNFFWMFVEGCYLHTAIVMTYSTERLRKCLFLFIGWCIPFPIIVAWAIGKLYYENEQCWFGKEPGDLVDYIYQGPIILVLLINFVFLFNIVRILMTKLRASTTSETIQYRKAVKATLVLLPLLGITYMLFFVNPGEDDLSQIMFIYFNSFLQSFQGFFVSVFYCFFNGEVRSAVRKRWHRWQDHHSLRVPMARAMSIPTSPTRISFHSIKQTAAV
Summary of the method: (§1)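 Cells expressing full-length human CRF1R or CRF2R were exposed to peptide or vehicle control, and receptor activation was gauged as cAMP induction. cAMP was measured in cell lysates or via a cAMP-responsive element driving a reporter gene such as luciferase, CAT, GFP or alkaline phosphatase.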

CRF1R = target: T2, CRF1R (Homo sapiens, UniProt P34998); assay: CRF1R agonist activation (EC50 / Emax), called comparative CRF binding; assay type: cell-based; details: for Emax: read-out: CRF1R Emax
T2 sequence (P34998 24-415): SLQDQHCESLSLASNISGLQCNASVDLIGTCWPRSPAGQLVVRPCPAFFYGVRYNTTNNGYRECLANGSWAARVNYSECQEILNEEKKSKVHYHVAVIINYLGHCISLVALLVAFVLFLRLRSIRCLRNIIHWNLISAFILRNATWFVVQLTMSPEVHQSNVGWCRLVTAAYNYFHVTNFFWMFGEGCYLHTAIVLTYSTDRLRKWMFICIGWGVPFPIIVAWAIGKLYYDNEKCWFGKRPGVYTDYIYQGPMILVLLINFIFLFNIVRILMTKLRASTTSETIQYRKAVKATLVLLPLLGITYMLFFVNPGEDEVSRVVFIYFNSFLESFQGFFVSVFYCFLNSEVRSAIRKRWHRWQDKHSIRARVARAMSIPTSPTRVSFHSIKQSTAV
Summary of the method: as §1

Row | Molecule | EC50 (CRF2R; read-out: CRF2R EC50) [nM] | Emax (CRF2R) [%] | EC50 (CRF1R; read-out: CRF1R EC50) [nM] | Emax (CRF1R) [%] | EC50 (CRF2R) [nM] | EC50 (CRF1R; CRF1R EC50) [nM]
1 | CC[C@H](C)[C@H](NC(=O)[C@H](Cc1c[nH]cn1)NC(=O)[C@H](C)NC(=O)[C@H](CC(N)=O)NC(=O)[C@H](CCC(N)=O)NC(=O)[C@H](CCC(=O)O)NC(=O)[C@H](C)NC(=O)[C@H](CCCNC(=N)N)NC(=O)[C@H](CCC(=O)O)NC(=O)[C@H](CCCNC(=N)N)NC(=O)[C@H](CCC(N)=O)NC(=O)[C@H](CO)NC(=O)[C@H](CCC(N)=O)NC(=O)[C@@H](NC(=O)[C@H](CCCCN)NC(=O)[C@H](CCC(=O)O)NC(=O)[C@H](CC(C)C)NC(=O)[C@H](CCC(=O)O)NC(=O)[C@H](CC(C)C)NC(=O)[C@H](CC(C)C)NC(=O)[C@@H](NC(=O)[C@H](CCCNC(=N)N)NC(=O)[C@H](CC(C)C)NC(=O)[C@H](CC(C)C)NC(=O)[C@H](CC(C)C)NC(=O)[C@H](CC(C)C)NC(=O)[C@@H]1CCCN1C(=O)[C@H](CC(C)C)NC(=O)[C@H](CC(=O)O)NC(=O)[C@@H](NC(=O)[C@H](CO)NC(=O)[C@H](CC(C)C)NC(=O)[C@H](CO)NC(=O)[C@@H]1CCCN1C(=O)[C@H](CC(N)=O)NC(=O)[C@@H](N)CC(=O)O)[C@@H](C)CC)[C@@H](C)O)[C@@H](C)O)C(=O)N[C@@H](Cc1ccccc1)C(=O)N[C@@H](C)C(=O)N[C@@H](Cc1c[nH]cn1)C(=O)N[C@H](C(N)=O)C(C)C [compound 328] (H-DNPSLSIDLPLLLLRTLLELEKTQSQRERAEQNAHIFAHV-NH2; N-terminus assumed) | 11.7 | 95.7 | ≥ 1000 | 30.7 |  | 
2 | NDDPPISIDLPFQLLRNMIEMARIENEREQAGLNAKYLAEV-NH2 [compound 258] |  | 49.3 |  | 23.6 |  | 
3 | CC[C@H](C)[C@H](N)C(=O)N[C@H](C(=O)N[C@@H](CC(C)C)C(=O)N[C@@H](CO)C(=O)N[C@@H](CC(C)C)C(=O)N[C@@H](CC(=O)O)C(=O)N[C@H](C(=O)N1CCC[C@H]1C(=O)N[C@H](C(=O)NCC(=O)N[C@@H](CC(C)C)C(=O)N[C@@H](CC(C)C)C(=O)N[C@@H](CCC(N)=O)C(=O)N[C@H](C(=O)N[C@@H](CC(C)C)C(=O)N[C@@H](CC(C)C)C(=O)N[C@@H](CCC(=O)O)C(=O)N[C@@H](CCC(N)=O)C(=O)N[C@@H](C)C(=O)N[C@@H](CCCNC(=N)N)C(=O)N[C@@H](C)C(=O)N[C@@H](CC(=O)O)C(=O)N[C@@H](C)C(=O)N[C@@H](C)C(=O)N[C@@H](CCCNC(=N)N)C(=O)N[C@@H](CCC(=O)O)C(=O)N[C@@H](CCC(N)=O)C(=O)N[C@@H](C)C(=O)N[C@H](C(=O)N[C@H](C(=O)N[C@@H](CC(N)=O)C(=O)N[C@@H](C)C(=O)N[C@@H](CCCNC(=N)N)C(=O)N[C@H](C(=O)N[C@@H](CC(C)C)C(=O)N[C@@H](C)C(=O)N[C@@H](CCCNC(=N)N)C(=O)N[C@H](C(N)=O)C(C)C)[C@@H](C)CC)[C@@H](C)O)[C@@H](C)O)[C@@H](C)CC)[C@@H](C)CC)C(C)C)C(C)C [compound 130] (H-IVLSLDVPIGLLQILLEQARADAAREQATTNARILARV-NH2; N-terminus assumed) | 8.57 | 92 | > 100 | 9 |  | 
4 | CC[C@H](C)[C@H](NC(=O)[C@H](C)NC(=O)[C@H](CC(N)=O)NC(=O)[C@H](CCC(N)=O)NC(=O)[C@H](CCC(=O)O)NC(=O)[C@H](C)NC(=O)[C@H](CCCNC(=N)N)NC(=O)[C@H](CCC(=O)O)NC(=O)[C@H](CCCNC(=N)N)NC(=O)[C@H](CCC(N)=O)NC(=O)[C@H](CO)NC(=O)[C@H](CCC(N)=O)NC(=O)[C@@H](NC(=O)[C@H](CCCNC(=N)N)NC(=O)[C@H](C)NC(=O)[C@H](CC(C)C)NC(=O)[C@H](CCC(=O)O)NC(=O)[C@H](CC(C)C)NC(=O)[C@H](CC(C)C)NC(=O)[C@@H](NC(=O)[C@H](CCCNC(=N)N)NC(=O)[C@H](CC(C)C)NC(=O)[C@H](CC(C)C)NC(=O)[C@H](Cc1ccc(O)cc1)NC(=O)[C@H](Cc1ccccc1)NC(=O)[C@@H]1CCCN1C(=O)[C@H](CC(C)C)NC(=O)[C@H](CC(=O)O)NC(=O)[C@@H](NC(=O)[C@H](CO)NC(=O)[C@H](CC(C)C)NC(=O)[C@H](CO)NC(=O)[C@@H]1CCCN1C(=O)[C@H](CC(N)=O)NC(=O)[C@@H](N)CC(=O)O)[C@@H](C)CC)[C@@H](C)O)[C@@H](C)O)C(=O)N[C@H](C(=O)N[C@@H](Cc1ccccc1)C(=O)N[C@@H](C)C(=O)N[C@@H](CO)C(=O)N[C@H](C(N)=O)C(C)C)[C@@H](C)CC [compound 183] (H-DNPSLSIDLPFYLLRTLLELARTQSQRERAEQNAIIFASV-NH2; N-terminus assumed) |  | 100 |  | 57.5 |  | 
5 | CC[C@H](C)[C@H](N)C(=O)N[C@H](C(=O)N[C@@H](CC(C)C)C(=O)N[C@@H](CO)C(=O)N[C@@H](CC(C)C)C(=O)N[C@@H](CC(=O)O)C(=O)N[C@H](C(=O)N1CCC[C@H]1C(=O)N[C@H](C(=O)NCC(=O)N[C@@H](CC(C)C)C(=O)N[C@@H](CC(C)C)C(=O)N[C@@H](CCC(N)=O)C(=O)N[C@@H](CCC(=O)O)C(=O)N[C@@H](CC(C)C)C(=O)N[C@@H](CC(C)C)C(=O)N[C@@H](CCC(=O)O)C(=O)N[C@@H](CCSC)C(=O)N[C@@H](C)C(=O)N[C@@H](CCCNC(=N)N)C(=O)N[C@@H](C)C(=O)N[C@@H](CCC(=O)O)C(=O)N[C@@H](CCC(N)=O)C(=O)N[C@@H](CC(C)C)C(=O)N[C@@H](C)C(=O)N[C@@H](CCC(N)=O)C(=O)N[C@@H](CCC(N)=O)C(=O)N[C@@H](C)C(=O)N[C@@H](Cc1c[nH]cn1)C(=O)N[C@@H](CO)C(=O)N[C@@H](CC(N)=O)C(=O)N[C@@H](CCCNC(=N)N)C(=O)N[C@@H](CCCCN)C(=O)N[C@@H](CC(C)C)C(=O)N[C@@H](CCSC)C(=O)N[C@@H](CCC(=O)O)C(=O)N[C@H](C(=O)N[C@H](C(N)=O)[C@@H](C)CC)[C@@H](C)CC)[C@@H](C)CC)C(C)C)C(C)C [compound 1] (H-IVLSLDVPIGLLQELLEMARAEQLAQQAHSNRKLMEII-NH2; N-terminus assumed) |  | 100 |  | 64 |  | 
6 | CC[C@H](C)[C@H](N)C(=O)N[C@H](C(=O)N[C@@H](CC(C)C)C(=O)N[C@@H](CO)C(=O)N[C@@H](CC(C)C)C(=O)N[C@@H](CC(=O)O)C(=O)N[C@H](C(=O)N1CCC[C@H]1C(=O)N[C@H](C(=O)NCC(=O)N[C@@H](CC(C)C)C(=O)N[C@@H](CC(C)C)C(=O)N[C@@H](CCC(N)=O)C(=O)N[C@@H](CCCCN)C(=O)N[C@@H](CCSC)C(=O)N[C@H](C(=O)N[C@@H](CCC(=O)O)C(=O)N[C@H](C(=O)N[C@@H](CCC(=O)O)C(=O)N[C@@H](CCCCN)C(=O)N[C@@H](CCC(N)=O)C(=O)N[C@@H](CCC(=O)O)C(=O)N[C@@H](CCCCN)C(=O)N[C@@H](CCC(=O)O)C(=O)N[C@@H](CCCCN)C(=O)N[C@@H](CCC(N)=O)C(=O)N[C@@H](CCC(N)=O)C(=O)N[C@@H](C)C(=O)N[C@H](C(=O)N[C@H](C(=O)N[C@@H](CC(N)=O)C(=O)N[C@@H](C)C(=O)N[C@@H](CCCNC(=N)N)C(=O)N[C@H](C(=O)N[C@@H](CC(C)C)C(=O)N[C@@H](C)C(=O)N[C@@H](CCCNC(=N)N)C(=O)N[C@H](C(N)=O)C(C)C)[C@@H](C)CC)[C@@H](C)O)[C@@H](C)O)[C@@H](C)CC)[C@@H](C)CC)[C@@H](C)CC)C(C)C)C(C)C [compound 322] (H-IVLSLDVPIGLLQKMIEIEKQEKEKQQATTNARILARV-NH2; N-terminus assumed) |  | 96.5 |  | 10.7 | 23.1 | ≥ 1000
7 | CC[C@H](C)[C@H](N)C(=O)N[C@H](C(=O)N[C@@H](CC(C)C)C(=O)N[C@@H](CO)C(=O)N[C@@H](CC(C)C)C(=O)N[C@@H](CC(=O)O)C(=O)N[C@H](C(=O)N1CCC[C@H]1C(=O)N[C@H](C(=O)NCC(=O)N[C@@H](CC(C)C)C(=O)N[C@@H](CC(C)C)C(=O)N[C@@H](CCC(N)=O)C(=O)N[C@H](C(=O)N[C@@H](CC(C)C)C(=O)N[C@@H](CC(C)C)C(=O)N[C@@H](CCC(=O)O)C(=O)N[C@@H](CCC(N)=O)C(=O)N[C@H](C(=O)N[C@@H](CCCCN)C(=O)N[C@@H](C)C(=O)N[C@@H](CC(N)=O)C(=O)N[C@@H](C)C(=O)N[C@@H](C)C(=O)N[C@@H](CCCNC(=N)N)C(=O)N[C@@H](CCC(=O)O)C(=O)N[C@@H](CCC(N)=O)C(=O)N[C@@H](C)C(=O)N[C@H](C(=O)N[C@H](C(=O)N[C@H](C(=O)N[C@@H](C)C(=O)N[C@@H](CCCNC(=N)N)C(=O)N[C@H](C(=O)N[C@@H](CC(C)C)C(=O)N[C@@H](C)C(=O)N[C@@H](CCCNC(=N)N)C(=O)N[C@H](C(N)=O)C(C)C)[C@@H](C)CC)C(C)C)[C@@H](C)O)[C@@H](C)O)[C@@H](C)O)[C@@H](C)CC)[C@@H](C)CC)C(C)C)C(C)C [compound 116] (H-IVLSLDVPIGLLQILLEQTKANAAREQATTVARILARV-NH2) |  | 26.4 |  | 4.8 |  | 
